Results published in ChEMBL document CHEMBL5131500, “High Plasticity of the Amicetin Biosynthetic Pathway in Streptomyces sp. SHP 22-7 Led to the Discovery of Streptcytosine P and Cytosaminomycins F and G and Facilitated the Production of 12F-Plicacetin” (J Nat Prod, 2022).
Converted amounts (≈) assume the structure as drawn.

What was measured:
Format in all cases: functional
Pseudomonas aeruginosa = test: Antibacterial activity against Pseudomonas aeruginosa ATCC 27853 assessed as bacterial growth inhibition incubated over night by two-fold serial dilution method
Candida albicans = test: Antifungal activity against Candida albicans Tu01 assessed as fungal growth inhibition incubated for 48 hrs by broth microdilution method
Nakaseomyces glabratus = test: Antifungal activity against Candida glabrata Tu04 assessed as fungal growth inhibition incubated for 48 hrs by broth microdilution method
Enterococcus faecium = test: Antibacterial activity against Enterococcus faecium BM4147-1 assessed as bacterial growth inhibition incubated over night by two-fold serial dilution method
Staphylococcus aureus [1] = test: Antibacterial activity against Staphylococcus aureus ATCC 29213 assessed as bacterial growth inhibition incubated over night by two-fold serial dilution method
Klebsiella pneumoniae = test: Antibacterial activity against Klebsiella pneumoniae ATCC 12657 assessed as bacterial growth inhibition incubated over night by two-fold serial dilution method
Klebsiella aerogenes = test: Antibacterial activity against Enterobacter aerogenes ATCC 13048 assessed as bacterial growth inhibition incubated over night by two-fold serial dilution method
Acinetobacter baumannii = test: Antibacterial activity against Acinetobacter baumannii 09987 assessed as bacterial growth inhibition incubated over night by two-fold serial dilution method
Escherichia coli [2] = test: Antibacterial activity against Escherichia coli ATCC 25922 assessed as bacterial growth inhibition incubated over night by two-fold serial dilution method
Bacillus subtilis = test: Antibacterial activity against Bacillus subtilis 168 assessed as bacterial growth inhibition incubated over night by two-fold serial dilution method
Staphylococcus aureus [3] = test: Antibacterial activity against Staphylococcus aureus NCTC 8325 assessed as bacterial growth inhibition incubated over night by two-fold serial dilution method
[4] = test system: Mycolicibacterium smegmatis; test: Antibacterial activity against Mycobacterium smegmatis mc2 155 assessed as bacterial growth inhibition incubated over night by two-fold serial dilution method
HeLa = test: Cytotoxicity against human HeLa cells assessed as reduction in cell viability after 24 hrs by resazurin dye based assay
[5] = test system: Mycobacterium tuberculosis; test: Antitubercular activity against Mycobacterium tuberculosis H37Rv ATCC 25618 assessed as bacterial growth inhibition incubated for 7 days by resazurin microtiter assay; conditions: H37Rv ATCC 25618, 168 h, time 7 day
Escherichia coli [6] = test: Antimicrobial activity against Escherichia coli MRE600 assessed as inhibition of translation using luciferin as substrate incubated for 2 hrs by chemiluminescence based cell free assay; conditions: MRE600, 2 h

CC(C)CC(=O)Nc1ccn([C@H]2CC[C@H](O)[C@@H](C)O2)c(=O)n1
MIC (Pseudomonas aeruginosa): > 32 µg/mL
MIC (Candida albicans): > 32 µg/mL
MIC (Nakaseomyces glabratus): > 32 µg/mL
MIC (Enterococcus faecium): > 32 µg/mL
MIC (Staphylococcus aureus [1]): > 32 µg/mL
MIC (Klebsiella pneumoniae): > 32 µg/mL
MIC (Klebsiella aerogenes): > 32 µg/mL
MIC (Acinetobacter baumannii): > 32 µg/mL
MIC (Escherichia coli [2]): > 32 µg/mL
MIC (Bacillus subtilis): > 32 µg/mL
MIC (Staphylococcus aureus [3]): > 32 µg/mL
MIC [4]: > 32 µg/mL
IC50 (HeLa): > 64 µg/mL

CC(C)=CC(=O)Nc1ccn([C@H]2CC[C@H](O)[C@@H](C)O2)c(=O)n1
MIC (Pseudomonas aeruginosa): > 32 µg/mL
MIC (Candida albicans): > 32 µg/mL
MIC (Nakaseomyces glabratus): > 32 µg/mL
MIC (Enterococcus faecium): > 32 µg/mL
MIC (Staphylococcus aureus [1]): > 32 µg/mL
MIC (Klebsiella pneumoniae): > 32 µg/mL
MIC (Klebsiella aerogenes): > 32 µg/mL
MIC (Acinetobacter baumannii): > 32 µg/mL
MIC (Escherichia coli [2]): > 32 µg/mL
MIC (Bacillus subtilis): > 32 µg/mL
MIC (Staphylococcus aureus [3]): > 32 µg/mL
MIC [4]: > 32 µg/mL
IC50 (HeLa): > 64 µg/mL

C[C@H]1O[C@H](O[C@H]2CC[C@H](n3ccc(NC(=O)c4ccc(N)cc4)nc3=O)O[C@@H]2C)[C@H](O)[C@@H](O)[C@@H]1N(C)C
MIC (Pseudomonas aeruginosa): > 32 µg/mL
MIC (Candida albicans): > 32 µg/mL
MIC (Nakaseomyces glabratus): > 32 µg/mL
MIC (Enterococcus faecium): > 32 µg/mL
MIC (Staphylococcus aureus [1]): > 32 µg/mL
MIC (Klebsiella pneumoniae): > 32 µg/mL
MIC (Klebsiella aerogenes): > 32 µg/mL
MIC (Acinetobacter baumannii): > 32 µg/mL
MIC (Escherichia coli [2]): > 32 µg/mL
MIC (Bacillus subtilis): 32 µg/mL (≈ 61.8 µM)
MIC (Staphylococcus aureus [3]): > 32 µg/mL
MIC [4]: 2 µg/mL (≈ 3.86 µM)
MIC95 [5]: 16 µM (≈ 8.28 µg/mL)
IC50 (HeLa): 16 µg/mL (≈ 30.9 µM)
IC50 (Escherichia coli [6]): 12 µg/mL (≈ 23.2 µM)

CC(=O)C(C)Nc1ccc(C(=O)Nc2ccn([C@H]3CC[C@H](O[C@H]4O[C@H](C)[C@@H](N(C)C)[C@H](O)[C@H]4O)[C@@H](C)O3)c(=O)n2)cc1 (stereo not given in full)
MIC (Pseudomonas aeruginosa): > 32 µg/mL
MIC (Candida albicans): > 32 µg/mL
MIC (Nakaseomyces glabratus): > 32 µg/mL
MIC (Enterococcus faecium): > 32 µg/mL
MIC (Staphylococcus aureus [1]): > 32 µg/mL
MIC (Klebsiella pneumoniae): > 32 µg/mL
MIC (Klebsiella aerogenes): > 32 µg/mL
MIC (Acinetobacter baumannii): > 32 µg/mL
MIC (Escherichia coli [2]): > 32 µg/mL
MIC (Bacillus subtilis): > 32 µg/mL
MIC (Staphylococcus aureus [3]): > 32 µg/mL
MIC [4]: 2 µg/mL (≈ 3.4 µM)
MIC95 [5]: 32 µM (≈ 18.8 µg/mL)
IC50 (HeLa): 16 µg/mL (≈ 27.2 µM)
IC50 (Escherichia coli [6]): 13 µg/mL (≈ 22.1 µM)

CC(C)=CC(=O)Nc1ccn([C@H]2CC[C@H](O[C@H]3O[C@H](C)[C@@H](N(C)C)[C@H](O)[C@H]3O)[C@@H](C)O2)c(=O)n1
MIC (Pseudomonas aeruginosa): > 32 µg/mL
MIC (Candida albicans): > 32 µg/mL
MIC (Nakaseomyces glabratus): > 32 µg/mL
MIC (Enterococcus faecium): > 32 µg/mL
MIC (Staphylococcus aureus [1]): > 32 µg/mL
MIC (Klebsiella pneumoniae): > 32 µg/mL
MIC (Klebsiella aerogenes): > 32 µg/mL
MIC (Acinetobacter baumannii): > 32 µg/mL
MIC (Escherichia coli [2]): > 32 µg/mL
MIC (Bacillus subtilis): 32 µg/mL (≈ 66.6 µM)
MIC (Staphylococcus aureus [3]): > 32 µg/mL
MIC [4]: 4 µg/mL (≈ 8.32 µM)
MIC95 [5]: 32 µM (≈ 15.4 µg/mL)
IC50 (HeLa): 2 µg/mL (≈ 4.16 µM)
IC50 (Escherichia coli [6]): 1.6 µg/mL (≈ 3.33 µM)

CC[C@H](C)C(=O)Nc1ccn([C@H]2CC[C@H](O)[C@@H](C)O2)c(=O)n1
MIC (Pseudomonas aeruginosa): > 32 µg/mL
MIC (Candida albicans): > 32 µg/mL
MIC (Nakaseomyces glabratus): > 32 µg/mL
MIC (Enterococcus faecium): > 32 µg/mL
MIC (Staphylococcus aureus [1]): > 32 µg/mL
MIC (Klebsiella pneumoniae): > 32 µg/mL
MIC (Klebsiella aerogenes): > 32 µg/mL
MIC (Acinetobacter baumannii): > 32 µg/mL
MIC (Escherichia coli [2]): > 32 µg/mL
MIC (Bacillus subtilis): > 32 µg/mL
MIC (Staphylococcus aureus [3]): > 32 µg/mL
MIC [4]: > 32 µg/mL
IC50 (HeLa): > 64 µg/mL

C[C@H]1O[C@H](O[C@H]2CC[C@H](n3ccc(NC(=O)c4ccc(N)c(F)c4)nc3=O)O[C@@H]2C)[C@H](O)[C@@H](O)[C@@H]1N(C)C
MIC (Pseudomonas aeruginosa): > 32 µg/mL
MIC (Candida albicans): > 32 µg/mL
MIC (Nakaseomyces glabratus): > 32 µg/mL
MIC (Enterococcus faecium): > 32 µg/mL
MIC (Staphylococcus aureus [1]): > 32 µg/mL
MIC (Klebsiella pneumoniae): > 32 µg/mL
MIC (Klebsiella aerogenes): > 32 µg/mL
MIC (Acinetobacter baumannii): > 32 µg/mL
MIC (Escherichia coli [2]): > 32 µg/mL
MIC (Bacillus subtilis): > 32 µg/mL
MIC (Staphylococcus aureus [3]): > 32 µg/mL
IC50 (HeLa): > 64 µg/mL

CS/C=C/C(=O)Nc1ccn([C@H]2CC[C@H](O[C@H]3O[C@H](C)[C@@H](N(C)C)[C@H](O)[C@H]3O)[C@@H](C)O2)c(=O)n1
MIC (Pseudomonas aeruginosa): > 32 µg/mL
MIC (Candida albicans): > 32 µg/mL
MIC (Nakaseomyces glabratus): > 32 µg/mL
MIC (Enterococcus faecium): > 32 µg/mL
MIC (Staphylococcus aureus [1]): 16 µg/mL (≈ 32.1 µM)
MIC (Klebsiella pneumoniae): > 32 µg/mL
MIC (Klebsiella aerogenes): > 32 µg/mL
MIC (Acinetobacter baumannii): > 32 µg/mL
MIC (Escherichia coli [2]): > 32 µg/mL
MIC (Bacillus subtilis): 8 µg/mL (≈ 16 µM)
MIC (Staphylococcus aureus [3]): 16 µg/mL (≈ 32.1 µM)
MIC [4]: 4 µg/mL (≈ 8.02 µM)
MIC95 [5]: 8 µM (≈ 3.99 µg/mL)
IC50 (HeLa): 1 µg/mL (≈ 2.01 µM)
IC50 (Escherichia coli [6]): 1 µg/mL (≈ 2.01 µM)

CC[C@H](C)CCC(=O)Nc1ccn([C@H]2CC[C@H](O[C@H]3O[C@H](C)[C@@H](N(C)C)[C@H](O)[C@H]3O)[C@@H](C)O2)c(=O)n1
MIC (Pseudomonas aeruginosa): > 32 µg/mL
MIC (Candida albicans): > 32 µg/mL
MIC (Nakaseomyces glabratus): > 32 µg/mL
MIC (Enterococcus faecium): > 32 µg/mL
MIC (Staphylococcus aureus [1]): > 32 µg/mL
MIC (Klebsiella pneumoniae): > 32 µg/mL
MIC (Klebsiella aerogenes): > 32 µg/mL
MIC (Acinetobacter baumannii): > 32 µg/mL
MIC (Escherichia coli [2]): > 32 µg/mL
MIC (Bacillus subtilis): > 32 µg/mL
MIC (Staphylococcus aureus [3]): > 32 µg/mL
MIC [4]: 16 µg/mL (≈ 31.3 µM)
IC50 (HeLa): > 64 µg/mL
IC50 (Escherichia coli [6]): 9.5 µg/mL (≈ 18.6 µM)
